We go through nine molecules from US10562882B2, “Piperidine derivatives for use in the treatment or prevention of psychiatric and neurological conditions” (Takeda Pharmaceutical Company Limited, priority 2013, dated 2020).

Each structure is given as a SMILES string.

human PKR1 receptors, sequence (Q8TCW9 whole entry): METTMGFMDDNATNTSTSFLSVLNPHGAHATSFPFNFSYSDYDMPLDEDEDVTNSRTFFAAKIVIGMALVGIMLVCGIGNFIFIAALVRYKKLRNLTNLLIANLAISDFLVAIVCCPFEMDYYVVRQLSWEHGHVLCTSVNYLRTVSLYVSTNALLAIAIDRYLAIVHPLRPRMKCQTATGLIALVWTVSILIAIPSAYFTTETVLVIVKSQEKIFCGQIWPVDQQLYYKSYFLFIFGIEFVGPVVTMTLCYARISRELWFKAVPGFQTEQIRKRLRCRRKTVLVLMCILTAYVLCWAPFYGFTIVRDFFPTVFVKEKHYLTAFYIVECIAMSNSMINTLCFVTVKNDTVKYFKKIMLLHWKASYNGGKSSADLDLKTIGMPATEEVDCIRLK

In this test the target is human PKR1 receptors (Homo sapiens (Human), UniProt Q8TCW9). Description: PKR1 antagonist intracellular calcium (FLIPR) assay, block of PK1-mediated calcium release. It is filed as cell-based. The following applies: RBL2H3 cells expressing human PKR1; PK1 at EC80; minimum of two independent assays. The protocol:
Prokineticin receptor 1 (PKR1) antagonists may be functionally assessed by measurement of change in intracellular calcium levels induced by Gq mediated increase in inositol triphosphate (IP3) levels. The ability of a compound to block the intracellular release of calcium mediated by PK1 in RBL2H3 cells expressing human PKR1 receptors is determined as a measure of the compound's antagonist activity in vitro.
Approximately 10,000 cells per assay well are seeded in normal culture medium in a 384 well plate (Corning). Twenty-four hours after seeding, the cells are loaded with a calcium sensitive fluorescent dye by replacing the culture medium with assay buffer (1× Hanks buffered saline, 25 mM HEPES, 0.1% w/v fatty acid free BSA (bovine serum albumin), pH 7.4) containing 1 mM probenecid and 1× Calcium 5 Reagent (Molecular Devices). Cells are incubated at 37° C. for 1 hour to allow for dye uptake.
To test for antagonist activity, test compounds at a final concentration range between 0.32 nM-10 μM (diluted in assay buffer) are added to duplicate assay wells and allowed to incubate for 10 minutes prior to stimulation with PK1. After incubation with test compounds the assay plate is placed in a FLIPR Tetra (Molecular Devices) and PK1 (diluted in assay buffer) is added at the determined EC80 concentration (final). Ligand-dependent changes in intracellular calcium levels are determined by measuring changes in fluorescence of the dye at […] following excitation at 485 nm. […] A minimum of two IC50 values determined from independent assays are generated for each compound.
`CC(C)n1c(C2CCCN(C(=O)c3ccnc(N(C)C)c3)C2)nc2ccccc21` (single isomer, unassigned; enantiomer 2) [Example 3, N,N-Dimethyl-4-{3-[1-(propan-2-yl)-1H-1,3-benzodiazol-2-yl]piperidine-1-carbonyl}pyridin-2-amine (enantiomer 2)]: the IC50 was 9060 nM.
The same measure for `CCn1cc(C(=O)N2CCCC(OC)(c3ncc(Cl)cc3C(F)(F)F)C2)cn1` (stereo not drawn) [Example 32, 5-Chloro-2-[1-(1-ethyl-1H-pyrazole-4-carbonyl)-3-methoxypiperidin-3-yl]-3-(trifluoromethyl)pyridine]: 1880 nM; for `COC1(c2ncc(Cl)cc2C)CCCN(C(=O)c2cn(C)nc2N)C1` (stereo not drawn) [Example 42, 4-[3-(5-Chloro-3-methylpyridin-2-yl)-3-methoxypiperidine-1-carbonyl]-1-methyl-1H-pyrazol-3-amine]: more than 9000 nM; for `CN(C)c1cc(C(=O)N2CCCC(c3nc4ccccc4n3C)C2)ccn1` (stereo not drawn) [Example 4, N,N-Dimethyl-4-[3-(1-methyl-1H-1,3-benzodiazol-2-yl)piperidine-1-carbonyl]pyridin-2-amine]: 1220 nM.
The value for `CCn1c(C2CCCN(C(=O)c3cnnc(NC)c3)C2)cc2cc(Cl)ccc21` (stereo not drawn) [Example 20, 5-[3-(5-Chloro-1-ethyl-1H-indol-2-yl)piperidine-1-carbonyl]-N-methylpyridazin-3-amine] was 1250 nM.
Regarding `CN(C)c1cc(C(=O)N2CCCC(c3cc4ccccc4n3C)C2)ccn1` (stereo not drawn) [Example 8, N,N-Dimethyl-4-[3-(1-methyl-1H-indol-2-yl)piperidine-1-carbonyl]pyridin-2-amine], the IC50 is 1070 nM.
Turning to `CCn1cc(C(=O)N2CCCC(c3cc4cc(C)ccc4n3CC)C2)cn1` (stereo not drawn) [Example 17, 1-Ethyl-2-{1-[(1-ethyl-1H-pyrazol-4-yl)carbonyl]piperidin-3-yl}-5-methyl-1H-indole], the IC50 came to 2590 nM.
The same measure for `CCn1c(C2CCCN(C(=O)c3cn(C)nc3N)C2)cc2cc(C)ccc21` (stereo not drawn) [Example 26, 4-[3-(1-Ethyl-5-methyl-1H-indol-2-yl)piperidine-1-carbonyl]-1-methyl-1H-pyrazol-3-amine]: 3120 nM; for `CC(C)n1c(C2CCCN(C(=O)c3ccnc(N(C)C)c3)C2)nc2ccccc21` (racemic) [Example 1, N,N-Dimethyl-4-{3-[1-(propan-2-yl)-1H-1,3-benzodiazol-2-yl]piperidin-1-carbonyl}pyridin-2-amine (racemic)]: 320 nM.

For orientation: IC50 means the concentration that gives 50% inhibition.
